Assay results published in patent EP1801117A1, “Means and methods for regulating amino acid pools and/or transport” (Friesland Brands B.V., priority 2005, dated 2007).

Molecular target: L. lactis MG1363 BcaP (CtrA), branched-chain amino acid permease (Lactococcus lactis subsp. cremoris, UniProt A2RHI9)
Test: Competition experiment: inhibition of L-[14C]isoleucine uptake by unlabeled L-amino acids in whole cells overproducing BcaP
Type: cell-based
Settings: 10-fold excess of unlabeled L-amino acid; 250 µM unlabeled L-isoleucine (control); lactococcal cells overproducing BcaP; uptake after 1 min at 30°C; means of three measurements
Method: Amino acid transport assays. L. lactis MG1363 (pNGbcaP; pNZ9530), L. lactis MG1363 or L. lactis MGbcaP, the latter two harboring plasmids pNG8048 and pNZ9530, were grown at 30°C in 50 ml of ½GM17. At an OD600 of approximately 0.4, 1000^-1 volume of supernatant of the nisin-producing strain L. lactis NZ9700 (Kuipers et al, 1993) was added to the cultures to induce BcaP production. At an OD600 of approximately 1.0, cells were harvested by centrifugation at 6300 g and 4°C. Cell pellets were washed with 25 ml of ice-cold CDM, concentrated to an OD600 of 10.0 in CDM lacking amino acids and stored on ice until use. Cells were energized prior to transport assays by 5 min of incubation at 30°C in the presence of 0.5% glucose. Subsequently, 100 µl of cell suspension were mixed with 100 µL of CDM containing 40 µM of the unlabeled amino acid of interest and a final concentration of 1 µM of the same amino acid in a ^14C- or ^35S-labeled form (Amersham Biosciences). For competition experiments, a 10-fold excess of unlabeled amino acid was added. Mixtures were incubated at 30°C for various time intervals while stirring. The reactions were stopped by the addition of 2 ml of ice-cold 0.1 M LiCl, followed by filtration through 0.45 µm pore-size nitrocellulose filters (Schleicher & Schuell, GmbH, Dassel, Germany). Reaction tubes and filters were washed with another 2 mL of ice-cold 0.1 M LiCl. Subsequently, the filters were transferred to vials containing 2 ml of scintillation fluid (Packard BioScience, Groningen, the Netherlands) and radioactivity was determined using a Packard TriCarb 2000 CA liquid scintillation analyzer (Packard Instruments, Meriden, CT).

L. lactis MG1363 BcaP (CtrA), branched-chain amino acid permease, sequence (A2RHI9 whole entry): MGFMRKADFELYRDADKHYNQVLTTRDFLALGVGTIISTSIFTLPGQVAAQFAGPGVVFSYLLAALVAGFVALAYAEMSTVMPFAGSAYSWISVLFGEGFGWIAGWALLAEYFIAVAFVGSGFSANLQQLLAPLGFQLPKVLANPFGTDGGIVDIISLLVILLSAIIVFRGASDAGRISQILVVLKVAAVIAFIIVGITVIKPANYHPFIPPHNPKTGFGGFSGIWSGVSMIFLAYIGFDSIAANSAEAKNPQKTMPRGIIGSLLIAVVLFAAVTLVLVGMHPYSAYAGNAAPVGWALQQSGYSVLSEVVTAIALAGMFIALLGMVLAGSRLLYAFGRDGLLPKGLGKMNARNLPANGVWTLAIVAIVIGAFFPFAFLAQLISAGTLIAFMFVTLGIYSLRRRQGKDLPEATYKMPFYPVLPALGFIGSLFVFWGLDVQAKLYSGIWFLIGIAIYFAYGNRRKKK

SMILES | inhibition of isoleucine transport by BcaP (reduction of L-[14C]isoleucine uptake)
CC(C)[C@H](N)C(=O)O [valine] | 64%
CC[C@H](C)[C@H](N)C(=O)O [isoleucine] | about 80%
CC(C)C[C@H](N)C(=O)O [leucine] | about 80%
CSCC[C@H](N)C(=O)O [methionine] | 23%
